What was measured:
mouse DC = test: Co-immunoprecipitation with class II IA^b from mouse DC; type: cell-based
Source text: In FIG. 5A, the distribution of class II (labeled with APC-conjugated antibody) and CD80/CD86 molecules (labeled with PE-conjugated antibodies) was visualized by FRET following treatment of human monocyte derived DC with B7-DC XAb (open histograms) or with isotype control antibody (filled histograms). For FIG. 5B, mouse bone marrow derived DC were labeled, treated, and analyzed as in FIG. 5A. FIG. 5C indicates the inability of the IA^b specific IgM antibody 25-9-3 (open dark histograms), B7-DC XAb (open light histograms), and isotype control antibody treated samples (filled histograms) to induce FRET (top left and middle panels). Binding of the class II specific IgM antibody to the mouse DC analyzed is shown (top right panel). FIG. 5D indicates the ability of B7-DC-specific IgG antibody (open histograms on left of each panel) or no IgG antibody (open histograms on right of each panel) to inhibit FRET induced by the MTAb B7-DC XAb. Absence of FRET induced by Isotype control antibody is shown in reference (filled histograms). For FIGS. 5E and 5F, immunoprecipitates of membrane proteins from B7-DC XAb or control antibody treated DC were isolated using biotin tagged IA^b-specific KH74 antibody. The precipitates were analyzed by Western blot using mouse-specific TREM-2 and CD40 antibodies as probes. […]

CpG-treated DCs = test: Antigen persistence in CpG-treated DCs; type: cell-based, mouse; conditions: CpG-treated wild type DCs or B7DC−/− DCs
Protocol: FIG. 15 is a series of histograms showing restoration of antigen persistence in CpG-treated DCs expressing Kb-peptide constructs upon treatment with the appropriate MTab. DCs were untreated (blue) or treated with 10 ug/mL CpG (red) 48 hours prior to harvesting. They were then pulsed with Ovalbumin-Alexa647 and either hIgM12, hIgM22, or 28-13-3, and Ovalbumin-647 levels were measured in CD11c positive cells by flow cytometry.
The ability of Kb-peptide expressing DCs to alter antigen processing was then tested. Untreated DCs take up fluorochrome-labeled protein, and the fluorochrome labeled protein persists over 24 hours, as measured by flow cytometry. DCs treated with a Toll receptor agonist (LPS, CpG, or Polyl:C) 24 hours prior to addition of protein lose their ability to take up and maintain this antigen. […] The ability of B7DC−/− DCs transduced with the Kb-peptide constructs was compared to wild type DCs or knockouts transduced with B7DC.

human DC = test: Immunoblot of phosphorylation of signaling intermediates in human DC; type: cell-based
Protocol: FIGS. 2A to 2G are a series of pictures showing that a kinase activated pathway regulates antibody-induced antigen uptake by matured DC. Matured human monocyte-derived DC were treated with the MTAb B7-DC XAb for varying time periods and evaluated for the phosphorylation status of select signaling pathway intermediates by immunoprecipitation with DAP12 (MC457), Syk (4D10), and PLCγ1 (MC490) reactive antibodies followed by western blot analysis using the phosphotyrosine reactive antibody 4G10 as a probe (FIGS. 2A-2C). Samples of the cells blocked with indicated concentration of piceatannol (FIG. 2D) or with […] of piceatannol (FIG. 2E) were analyzed for phosphorylation of Syk (FIG. 2D) and PLCγ1 (FIG. 2E). To investigate the functional importance of these signaling intermediates in the regulation of antigen uptake by matured DC activated with B7-DC XAb, varying concentrations of pharmacologic inhibitors were used to block the activity of p72Syk (piceatannol) and PLCγ1 (U73122) (FIGS. 2F and 2G, respectively). Antigen uptake was assessed by pulsing cultures with FITC-conjugated ovalbumin and measuring intracellular fluorescence 16 hours later in CD11c positive cells by flow cytometry.
In experiments involving assessment of the phosphorylation status of various protein kinases using whole cell lysate, dendritic cells of mouse or human origin or Jurkat cells were stimulated at the indicated times with control antibody or B7-DC XAb, and were lysed on ice for 10 minutes in 1 ml buffer containing 20 mM Tris-HCl, 40 mM NaCl, 5 mM EDTA, 50 mM NaF, 30 mM Na4P2O7, 0.1% BSA, 1 mM Na3VO4, 1 mM PMSF, 5 μg/ml aprotinin, 10 μg/ml leupeptin, and 1% Triton X-100. Cellular debris was removed by centrifugation at 20,800×g for 5 minutes at 4° C. and the supernatant was used in SDS-PAGE analysis for phosphorylated tyrosine proteins. For immunoprecipitation, antibody against mouse Syk (4D10) or PLC yl (MC490) or DAP12 (MC457) at 10 μg per sample was bound to protein A-Sepharose beads at 4° C. for 2 hours under constant rotation. Supernatants from cell lysate after stimulation were incubated with antibody coupled beads for 2 hours at 4° C. with constant rotation. […] Tyrosine-phosphorylated proteins were detected using the anti-phosphotyrosine specific antibody, 4G10, followed by goat anti-mouse IgG coupled to Horse Radish Peroxidase (Santa Cruz Biotechnology) and the SuperSignal detection system (Pierce Biotechnology, Rockford, Ill.). […] The supernatants were resolved by SDS-PAGE, probed with anti-mouse TREM-2 antibody (237920) and detected by Goat-anti mouse antibody coupled to HRP, or probed with affinity purified anti-mouse CD40 (1C10) and detected by Goat-anti mouse antibody coupled to HRP.

For “B7-DC XAb: human monoclonal IgM from a Waldenstrom's macroglobulinemia patient that binds and cross-links B7-DC on DC”, the “association of TREM-2 with class II IA^b by co-immunoprecipitation” value (mouse DC; lysates 5 minutes after treatment) was “co-immunoprecipitation of TREM-2 with the class II molecule IA^b”, the “recruitment of CD40 to the cap, co-precipitation with class II” value (mouse DC; mouse DC) was “co-precipitation with class II molecules” and the antigen persistence (CpG-treated DCs) was “restored to untreated levels”. The “phosphorylation of PLCγ1” value (human DC; human DC) was “concomitant with the phosphorylation of PLCγ1”, the “phosphorylation of cellular proteins” value (human DC; human DC treated with antibody) was “induced as early as one minute after treatment” and the “phosphorylation of DAP12” value (human DC; human DC, cross-linking B7-DC) was “rapidly phosphorylated”. For the same substance, the “phosphorylation of Syk” value (human DC; human DC, immunoprecipitated Syk) was “revealed phosphorylation of the protein tyrosine kinase”.

Reference: patent US11274131B2, “IgM-mediated receptor clustering and cell modulation” (MAYO FOUNDATION FOR MEDICAL EDUCATION AND RESEARCH, priority 2007, dated 2022)
